How the values were obtained:
[1] = test system: patients with OA of the hand and knee; test: Double-blind comparator clinical trial, hand and knee OA combined (Example 7); type: in vivo, human; conditions: daily for 6 weeks
From the text: (§1) A prospective, dose ranging, double-blind, comparator clinical trial to evaluate the tolerability and efficacy of Pentabrex™, (Proteobioactives Pty Ltd, Balgowlah, NSW, Australia) compared to celecoxib, for the relief of symptoms in elderly patients with OA of the hand and knee conducted at the Subiaco Rheumatology Clinic, Subiaco, Perth, WA, Australia.
(§2) Thirty three male and female patients with symptomatic hand or knee OA were obtained from referrals sent by general medical practitioners located in Perth (Western Australia) suburbs. […] To be included in the clinical trial, patients had to be 50 years of age or older and have an OA grade of 3-4 (Kellgren J H, Lawrence J S. Radiological assessment of osteoarthrosis. Annals Rheumatic Dis.1957; 16:494-502) that had been symptomatic for at least 6 months prior to their inclusion. If a patient had pain in both knees or both hands, the more painful knee or hand was the joint used for assessment. If patients had both hand and knee OA each most painful joint was assessed separately.
(§3) Although patients were requested not to consume additional analgesics or NSAIDs over the duration of the study, if they found this to be too difficult because of the unacceptable level of pain they experienced, they were required to document the drugs and quantities they used for relief of pain in a six week daily diary that supplied with the clinical trial test package manufactured by the compounding chemist (Kingsway, Brookvale NSW 2100, Australia). Failure to complete the daily dairies over the duration of the 6 week trial and return the used blister pack to the examining clinician at the final consultation would be taken as to non-compliance with the trial protocol. The diary requirement was included as part of patient assessment for the duration of the trial because of the known non-compliance of patients taking oral medications over extended periods of time (van Berge Henegouwen MTH, van Driel H F, Kasteleijn-Nolst DGA. A patient diary as a tool to improve medicine compliance. Pharm World Sci. 1999; 21: 21-24, Farmer K C, Methods for measuring and monitoring medication regimen adherence in clinical trials and clinical practice. Clinical […]
The same clinical parameters that were determined for all patients at baseline were assessed at the final examination six weeks later. The patient's diaries and blister packs returned were also examined and the number of supplementary analgesics they consumed was recorded. Any adverse side effects noted over the duration of the trial were also recorded. […]

[2] = 223 cases in the United States, FDA memorandum 2005; cited from earlier work
patients with knee OA = test: Double-blind comparator clinical trial Pentabrex vs celecoxib, knee OA (Example 7); type: in vivo, human
From the text: as §1, §2
(§4) Patients with rheumatoid arthritis or any other rheumatic condition that required the continuous administration of a second line rheumatic agent such as methotrexate, steroid or cytokine antagonist, had current bleeding diathesis or were receiving treatment with blood thinners (such as warfarin), or had any significant medical conditions involving the liver, kidney, or their motor or nervous systems were excluded from the trial.
as §3
For patients with OA of the knee joints their VAS pain scores were determined for their pain at rest, pain on walking and early morning stiffness. […]

patients with hand OA = test: Double-blind comparator clinical trial Pentabrex vs celecoxib, hand OA (Example 7); type: in vivo, human
From the text: as §1, §2, §4, §3
At the commencement of the trial details of the patient's age, height, weight, location of the most painful joints, duration of symptoms and grade of OA were recorded. […]

[3] = test system: patients with bone marrow lesions (oedema) diagnosed by MRI; conditions: PPS administered systemically (IM or SC); cited from earlier work
[4] = test system: Japanese patients with mild knee OA; conditions: weekly subcutaneous 2 mg/kg NaPPS over 6 weeks; assessed to 52 weeks; cited from earlier work
[5] = test system: postmenopausal women with mild to moderate osteoarthritis; conditions: cited from earlier work
[6] = test system: leukocytes isolated from the blood of these patients; conditions: seven days after NaPPS administration, cited from earlier work
[7] = single oral dose [3H]PPS with 300 or 450 mg un-labelled PPS; healthy female subjects; cited from earlier work
[8] = test system: elderly subjects with high blood viscosity and filterability; conditions: 15 elderly subjects; IM 50 mg NaPPS twice daily for a week; cited from earlier work
[9] = test system: patients with symptomatic knee OA; conditions: NaPPS 3 mg/kg, 4 weekly IM injections, cited from earlier work
[10] = Pentabrex 350 mg or celecoxib 175 mg daily for 6 weeks
[11] = Pentabrex n = 5, celecoxib n = 9, daily for 6 weeks
[12] = Pentabrex n = 5, celecoxib n = 4, daily for 6 weeks

Compound: Cc1ccc(-c2cc(C(F)(F)F)nn2-c2ccc(S(N)(=O)=O)cc2)cc1 [Celecoxib, 4-[5-(4-methylphenyl)-3-(trifluoromethyl)pyrazol-1-yl] benzene sulfonamide]
- Negative response, % of patients [1]: 38.46%
- Negative response, number of patients [1]: 5
- Positive response, % of patients [1]: 61.54%
- Positive response, number of patients [1]: 8
- thrombotic or embolic events associated with the drug [2]: 102 cases
- Negative response, % of patients (patients with knee OA; [10]): 23.33%
- Positive response, % of patients (patients with knee OA; [10]): 77.77%
- Negative response, number of patients (patients with knee OA; [11]): 2
- Positive response, number of patients (patients with knee OA; [11]): 7
- Negative response, % of patients (patients with hand OA; [10]): 75%
- Positive response, % of patients (patients with hand OA; [10]): 25%
- Negative response, number of patients (patients with hand OA; [12]): 3
- Positive response, number of patients (patients with hand OA; [12]): 1

Compound: CCc1cccc2c3c([nH]c12)C(CC)(CC(=O)O)OCC3 (stereo not drawn) [etodolac]
- thrombotic or embolic events associated with the drug [2]: 22 cases

Compound: CS(=O)(=O)c1ccc(C2=C(c3ccccc3)C(=O)OC2)cc1 [rofecoxib, 4-(4-methylsulfonylphenyl)-3-phenyl-5H-furan-2-one]
- thrombotic or embolic events associated with the drug [2]: 99 cases

Compound: [2R,3R,4S,5R)-2-hydroxy-5-[(2S,3R,4S,5R)-5-hydroxy-3,4-disulfo-oxyoxan-2-yl]oxy-3-sulfooxyoxan-4-yl] hydrogen sulfate [NaPPS]
- bone marrow lesions (oedema) and accompanying pain [3]: resolved the bone marrow lesions (oedema) and accompanying pain
- joint swelling, knee flexion, pain while walking and stair climbing [4]: improved significantly
- peripheral blood mononuclear cell procoagulant activity (MPA) ([5]; 3 mg/kg NaPPS IM, 24 hours after administration): significantly reduced to within the normal range
- Plasma concentrations of lipoprotein lipase, hepatolipase, and superoxide dismutase ([5]; 3 mg/kg NaPPS IM, between 2 and 4 hours after administration): significantly elevated
- patients reporting significant clinical improvement of their symptoms ([5]; 4 weekly IM injections of 3 mg/kg, for up to 12 weeks after the last injection): 11
- concentrations of arachidonic acid-derived lipoxygenase (LOX) metabolites released from the cells ([6]; compared to leukocytes collected before): significantly decreased
- prostaglandin metabolites generated by the COX pathways ([6]; non-stimulated leukocytes): increased
- administered dose excreted in the faeces as intact PPS [7]: 84%
- administered dose excreted in urine in a depolymerized form [7]: 6%
- blood viscosity and filterability [8]: significant reduction
- pain on walking and other physical activities, such as stair climbing [9]: significantly improved
- joint pain at rest relative to placebo controls ([9]; maintained for 20 weeks after cessation): significantly improvement
